PMC8654847, “Design of a methotrexate-controlled chemical dimerization system and its use in bio-electronic devices” (Nature Communications, 2021)

Molecular target: T1, anti-MTX VHH
T1 construct: nanoCLAMP8-VHH fusion for the crystal structure 7RG7
Assay: microscale thermophoresis (EGFP-VHH titrated with MTX); […] Å crystal structure of the ternary complex with nanoCLAMP8
Assay type: binding

Work on `CN(Cc1cnc2nc(N)nc(N)c2n1)c1ccc(C(=O)N[C@@H](CCC(=O)O)C(=O)O)cc1` [MTX, methotrexate] yielded a Kd of 4.3 ± 0.25 nM.
